The source of these data is US20190274300A1, “PRESERVATIVE SOLUTION FOR LIVE CELLS OR COMPOSITION CONTAINING LIVE CELLS” (TERUMO KABUSHIKI KAISHA, priority 2016, published 2019).

The subject of this test is sheet-shaped human skeletal myoblast cell culture. Description: Cell survival rate confirmation test: sheet-shaped cell culture kept refrigerated in preservative solution, PI staining, flow cytometry. The format is cell-based. The note with it: 2° C. to 8° C. As to the method:
The sheet-shaped cell cultures were prepared using skeletal myoblast cells (with fibroblast cells contained therein) prepared from a human skeletal muscle by a usual or known method. A cell mixture of human skeletal myoblast cells and human fibroblast cells suspended in a 20% human serum-containing DMEM/F12 medium (Thermo Fisher Scientific Inc.) was seeded at 3.7×10^6 cells/well on a temperature-responsive culture dish (UpCell® 12 well Multi-well, CellSeed Inc.), and was then subjected to the sheet-formation cultivation at 37° C. under 5% CO2 for 12 to 26 hours. After the sheet-formation cultivation, the medium was removed, 700 μL of HBSS (+) (Thermo Fisher Scientific Inc.) which was chilled to 4° C. was added, and then the resultant was left to stand for 10 minutes. Then, gentle pipetting was conducted such as to detach the sheet-shaped cell culture completely.
After the sheet-shaped cell culture was completely detached, HBSS (+) was removed, and a fresh supply of room-temperature HBSS (+) was added to conduct rinsing. Such a washing step was repeated four times.
The sheet-shaped cell culture left to stand under the refrigerated conditions in (1) above was put to measurement of cell survival rate. After the sheet-shaped cell culture left to stand in the preservative solution for a predetermined period was dissociated with a trypsin-like protease, the cells were dispensed into a FACS tube to be 3.5×10^5 cells, followed by centrifugation, and the supernatant was discarded. To the resultant was added 3 ml of 0.5% BAS-containing PBS solution, and, after rinsing the cells by vortex, centrifugation was conducted, the supernatant was removed, and 500 μL of a propidium iodide (PI, Becton Dickinson) prepared to a final concentration of 0.6 μg/mL by use of a 0.5% BSA-containing PBS solution was added and mixed. Immediately after the mixing, the mixture was put to reaction at room temperature under a light shielding condition for approximately five minutes. After the reaction, a 0.5% BSA-containing PBS solution was added, the cells were rinsed by vortex, followed by centrifugation, then the supernatant was removed, 500 μL of a 0.5% BSA-containing PBS solution was added, and the resultant was put to an analysis. The analysis was conducted using a flow cytometer (Becton Dickinson), and the proportion of PI-unstained cells contained in the whole cells admixed with PI was measured. […]
As a control, a DMEM medium (Thermo Fisher Scientific Inc.) was used.

With `CC1=NN(c2ccccc2)C(=O)C1` [edaravone, 3-methyl-1-phenyl-2-pyrazolin-5-one], the cell survival rate entry runs as follows: (1 μM edaravone in physiological saline solution, five days) “approximately 95%”; (10 μM edaravone in physiological saline solution, five days) “approximately 97%”. Moreover, the “cell survival rate as compared to the case of no addition of edaravone” value (1 μM or 10 μM edaravone in physiological saline solution, five days) is “increased”. Also, the “lowering in the number of live cells from three days to seven days of preservation, compared to edaravone-nonadded HBSS (+)” value (100 μM edaravone in HBSS (+)) is “restrained”. In addition, the “cell survival rate as compared to HBSS (+) not admixed with edaravone” value (100 μM edaravone in HBSS (+), three days to seven days) is recorded as “higher cell survival rate”.

As for `O=C1O[C@H]([C@@H](O)CO)C(O)=C1O` [vitamin C, ascorbic acid], the cell survival rate entry is recorded as “approximately 63%” (0.2 mM vitamin C in physiological saline solution, three days) and “approximately 85%” (2 mM vitamin C in physiological saline solution, three days).

As for tocopherol [vitamin E], the cell survival rate entry (10 μM vitamin E in physiological saline solution, three days) is “approximately 65%” and the cell survival rate entry (100 μM vitamin E in physiological saline solution, three days) was “approximately 65%”.
